# Assay results reported in US20210395745A1, “RNAI AGENTS FOR HEPATITIS B VIRUS INFECTION” (Arrowhead Pharmaceuticals, Inc., priority 2019, published 2021).
# Tests used:
# Hepatitis B Virus (HBV) [1] = assay: Serum HBsAg levels in X Region Knockout model mice; assay type: in vivo; conditions: Example 14, single SC, 2 mg/kg AD04872 alone or with 0.7 to 2 mg/kg AD05070, days 8-29
# Protocol: Serum was collected and diluted 10 to 8000-fold in PBS containing 5% nonfat dry milk. Secondary HBsAg standards diluted in the nonfat milk solution were prepared from serum of ICR mice (Harlan Sprague Dawley) that had been transfected with 10 μg HBsAg-expressing plasmid pRc/CMV-HBs (Aldevron, Fargo, N. Dak.). HBsAg levels were determined with a GS HBsAg EIA 3.0 kit (Bio-Rad Laboratories, Inc., Redmond, Wash.) as described by the manufacturer. Recombinant HBsAg protein, ayw subtype, also diluted in nonfat milk in PBS, was used as a primary standard (Aldevron).
# HBsAg expression for each animal was normalized to the control group of mice injected with PBS in order to account for the non-treatment related decline in expression of MC-HBV1.3. First, the HBsAg level for each animal at a time point was divided by the pre-treatment level of expression in that animal in order to determine the ratio of expression “normalized to pre-treatment”. Expression at a specific time point was then normalized to the control group by dividing the “normalized to pre-treatment” ratio for an individual animal by the average “normalized to pre-treatment” ratio of all mice in the normal PBS control group.
# Hepatitis B Virus (HBV) [2] = assay: Serum HBV DNA levels in X Region Knockout model mice; conditions: Example 14, single SC, 2 mg/kg AD04872 with 0.7 to 2 mg/kg AD05070, days 8-22
# Hepatitis B Virus (HBV) [3] = assay: Serum HBsAg levels (ELISA) in pHBV model mice; assay type: in vivo, NOD-SCID mice; conditions: for Average HBsAg levels normalized to pre-treatment and PBS control: 4.0 mg/kg sc day 1, Day 8
# Description: Six to eight-week-old female NOD.CB17-Prkdscid/NcrCrl (NOD-SCID) mice were transiently transfected in vivo with MC-HBV1.3 by hydrodynamic tail vein injection (Yang P L et al. “Hydrodynamic injection of viral DNA: a mouse model of acute hepatitis B virus infection,” PNAS USA 2002 Vol. 99: p. 13825-13830), administered 30 to 45 days prior to administration of an HBV RNAi agent or control. MC-HBV1.3 is a plasmid-derived minicircle that contains the same terminally redundant human hepatitis B virus sequence HBV1.3 as in plasmid pHBV1.3 and in the HBV1.3.32 transgenic mice (GenBank accession #V01460) (Guidotti L G et al., “High-level hepatitis B virus replication in transgenic mice,” J Virol 1995 Vol. 69, p 6158-6169.). 5 or 10 μg MC-HBV1.3 in Ringer's Solution in a total volume of 10% of the animal's body weight was injected into mice via tail vein to create pHBV model of chronic HBV infection. The solution was injected through a 27-gauge needle in 5-7 seconds as previously described (Zhang G et al., “High levels of foreign gene expression in hepatocytes after tail vein injection of naked plasmid DNA.” Human Gene Therapy 1999 Vol. 10, p 1735-1737.). At pre-dose (either day 1 pre-dose, day −1, or day −2), Hepatitis B surface antigen (HBsAg) HBsAg expression levels in serum were measured by ELISA and the mice were grouped according to average HBsAg expression levels.
# HBV expression levels were normalized to pre-administration expression levels and to control mice injected with phosphate buffered saline (“PBS”).
# Mice were anesthetized with 2-3% isoflurane and blood samples were collected from the submandibular area into serum separation tubes (Sarstedt AG & Co., Nümbrecht, Germany). Blood was allowed to coagulate at ambient temperature for 20 min. The tubes were centrifuged at 8,000×g for 3 min to separate the serum and stored at 4° C.
# Serum was collected and diluted 10 to 8000-fold in PBS containing 5% nonfat dry milk. […] HBsAg levels were determined with a GS HBsAg EIA 3.0 kit (Bio-Rad Laboratories, Inc., Redmond, Wash.) as described by the manufacturer. […]
substance,measurement,setting,value
"AD05070: HBV RNAi agent duplex: antisense AM06606-AS, sense AM06605-SS (antisense UACCAAUUUAUGCCUACAGCG; sense CGCUGUAGGCAUAAAUUGGUA; chemically modified, pattern not given here)",knockdown of HBsAg compared to PBS control,Hepatitis B Virus (HBV) [1],did not diminish the activity of the 2 mg/kg HBV RNAi agent AD04872
same,serum HBV DNA,Hepatitis B Virus (HBV) [2],did not diminish the activity of the 2 mg/kg HBV RNAi agent AD04872
same,Average HBsAg levels normalized to pre-treatment and PBS control,Hepatitis B Virus (HBV) [3]; Ex 8 Group 6A,0.058 ± 0.035
same,Average HBsAg levels normalized to pre-treatment and PBS control,Hepatitis B Virus (HBV) [3]; Ex 8 Group 6B,0.117 ± 0.058
same,HBsAg compared to PBS control,"Hepatitis B Virus (HBV) [3]; Example 15, pHBV mice, single SC injection, doses per Table 38, days 8-50",provided significant knockdown of HBsAg compared to PBS control across each of the time points measured
